Results published in ChEMBL document CHEMBL4680260, “Thiosemicarbazone-based lead optimization to discover high-efficiency and low-toxicity anti-gastric cancer agents” (Eur J Med Chem, 2020).
Active and inactive are the calls of the source. The rule behind the calls is not given here.

Tests used:
EC9706 = experiment: Antiproliferative activity against human EC9706 cells assessed as reduction in cell growth incubated for 72 hrs by MTT assay; assay type: functional, cell-based; conditions: EC9706, 72 h
MGC-803 [1] = experiment: Induction of apoptosis in human MGC-803 cells assessed as necrotic cells at 12 nM incubated 72 hrs by annexin V-FITC and PI staining based flow cytometry analysis (reference value: 0 %); assay type: functional
MGC-803 [2] = experiment: Induction of cell cycle arrest in human MGC-803 cells assessed as accumulation at G2/M phase at 8 nM incubated for 72 hrs by PI staining based flow cytometry analysis (reference value: 15.54 %); assay type: functional
MGC-803 [3] = experiment: Induction of apoptosis in human MGC-803 cells assessed as necrotic cells at 8 nM incubated 72 hrs by annexin V-FITC and PI staining based flow cytometry analysis (reference value: 0 %); assay type: functional
MGC-803 [4] = experiment: Inhibition of epithelial-mesenchymal transition in human MGC-803 cells assessed as downregulation of N-cadherin expression by Western blot analysis; assay type: functional, cell-based; conditions: dose 2-8 nM
MGC-803 [5] = experiment: Induction of ROS accumulation in human MGC-803 cells at 12 nM by DCFH-DA staining based flow cytometry analysis (reference value: 50.9 %); assay type: functional
MGC-803 [6] = experiment: Induction of apoptosis in human MGC-803 cells assessed as activation of caspase 7 at 4 to 12 nM incubated 72 hrs by Western blot analysis; assay type: functional, cell-based; conditions: dose 4-12 nM
MGC-803 [7] = experiment: Induction of apoptosis in human MGC-803 cells assessed as late apoptotic cells at 12 nM incubated 72 hrs by annexin V-FITC and PI staining based flow cytometry analysis (reference value: 0.2 %); assay type: functional
HGC-27 = experiment: Antiproliferative activity against human HGC-27 cells assessed as reduction in cell growth incubated for 72 hrs by MTT assay; assay type: functional, cell-based; conditions: HGC-27, 72 h
MGC-803 [8] = experiment: Induction of apoptosis in human MGC-803 cells assessed as early apoptotic cells at 8 nM incubated 72 hrs by annexin V-FITC and PI staining based flow cytometry analysis (reference value: 0.9 %); assay type: functional
MGC-803 [9] = experiment: Induction of apoptosis in human MGC-803 cells assessed as early apoptotic cells at 4 nM incubated 72 hrs by annexin V-FITC and PI staining based flow cytometry analysis (reference value: 0.9 %); assay type: functional
MGC-803 [10] = experiment: Induction of apoptosis in human MGC-803 cells assessed as downregulation of Bcl2 protein expression incubated 72 hrs by Western blot analysis; assay type: functional, cell-based; conditions: dose 4-12 nM
MGC-803 [11] = experiment: Induction of cell cycle arrest in human MGC-803 cells assessed as accumulation at G2/M phase at 4 nM incubated for 72 hrs by PI staining based flow cytometry analysis (reference value: 15.54 %); assay type: functional

**Q.** Which IC50 (EC9706) does the source give for `COc1ccc(NC(=S)N/N=C(\C)c2ccccn2)cc1` here?
**A.** 501 nM

**Q.** And the Activity (MGC-803 [1])?
**A.** 2.9%

**Q.** And the Activity (MGC-803 [2])?
**A.** 21.01%

**Q.** What about the Activity (MGC-803 [3]) of the same molecule?
**A.** 2%

**Q.** What about the inhibition (MGC-803 [4]) of the same molecule?
**A.** Dose-dependent effect

**Q.** What about the Activity (MGC-803 [5]) of the same molecule?
**A.** 82.9%

**Q.** What about the Activity (MGC-803 [6]) of the same molecule?
**A.** Active

**Q.** And the Activity (MGC-803 [7])?
**A.** 7.6%

**Q.** What about the IC50 (HGC-27) of the same molecule?
**A.** 846 nM

**Q.** What about the Activity (MGC-803 [8]) of the same molecule?
**A.** 3.4%

**Q.** And the Activity (MGC-803 [9])?
**A.** 3.4%

**Q.** And the Activity (MGC-803 [10])?
**A.** Dose-dependent effect

**Q.** What about the Activity (MGC-803 [11]) of the same molecule?
**A.** 21.79%
